Results from US20130059096A1, “METHODS AND COATINGS FOR TREATING BIOFILMS” (President and Fellows of Harvard College, priority 2010, published 2013).

Legend:
TasA-mCherry = format: cell-based, Bacillus subtilis; details: 6 μM
Description: Fluorescence microscopy. For fluorescence microscopy analysis, 1 ml of culture was harvested. The cells were washed with PBS buffer and suspended in 50 μl of PBS buffer. Cover slides were pretreated with poly L-lysine (Sigma). Samples were examined using an Olympus workstation BX61 microscope. Images were taken using the automated software program SimplePCI and analyzed with program MetaMorph (Universal Imaging Corporation).
The cells were grown to stationary phase with shaking in biofilm-inducing medium in the presence or absence of D-tyrosine (6 μM). […] In contrast, when the cells were washed by centrifugation, resuspended and then examined by fluorescence microscopy, untreated cells (which were often in clumps) were seen to be intensely decorated with TasA-mCherry. […] The localization of unmodified TasA protein was also analyzed by transmission electron microscopy using gold-labeled anti-TasA antibodies. […] 24-hour-old cultures were incubated without (images 1 and 2) or with (images 3-6) D-tyrosine (0.1 mM) for an additional 12 hours. TasA fibers were stained by immunogold labeling using anti-TasA antibodies, and visualized by transmission electron microscopy as described in the Examples. […] Filled arrows indicate fiber bundles; open arrows indicate individual fibers. The scale bar is 500 nm. The scale bar in the enlargements of images 2, 4 and 6 is 100 nm. […]

TasA fibers = test: Cell association of TasA fibers by immunogold transmission electron microscopy; format: cell-based, Bacillus subtilis; details: 0.1 mM, 24-hour-old Δeps cultures treated for 12 hours
Description: Transmission electron microscopy and immunolabeling. Samples were diluted with distilled water and adsorbed onto a carbon or formvar/carbon coated grid. The grid surface was made hydrophilic prior to use with glow discharge in a vacuum evaporator. Once the specimen was adsorbed onto the film surface, the excess sample was blotted off on a filter paper (Whatman #1) and the grid was floated on 5 μl of stain solution (1-2% aqueous uranyl acetate) for a few minutes and then blotted off. The samples were dried and examined in a Tecnai™ G^2 Spirit BioTWIN microscope at an accelerating voltage of 80 KV. Images were taken with an AMT 2k CCD camera. […]
The cells were grown to stationary phase with shaking in biofilm-inducing medium in the presence or absence of D-tyrosine (6 μM). […] In contrast, when the cells were washed by centrifugation, resuspended and then examined by fluorescence microscopy, untreated cells (which were often in clumps) were seen to be intensely decorated with TasA-mCherry. […] The localization of unmodified TasA protein was also analyzed by transmission electron microscopy using gold-labeled anti-TasA antibodies. […]

[1] = system: matrix operons eps and yqxM; test: Expression of PyqxM-lacZ and PepsA-lacZ (β-galactosidase activity); format: cell-based, Bacillus subtilis; details: 3 μM, strains FC122 and FC5, MSgg, shaking
Description: Assays of β-galactosidase activity. Cells were cultured in MSgg medium at 37° C. in a water bath with shaking 1 ml of culture was collected at each time point. β-galactosidase activity was determined as described previously (Chai et al., Mol. Microbiol. 67:254 (2008)).

Bacillus subtilis [2] = test: Disruption of existing 3 day-old pellicles; format: cell-based; details: 3 μM added to 3 day-old cultures, further 8 hours
Bacillus subtilis [3] = test: Cell growth in MSgg medium with shaking; format: cell-based; details: 3 μM
P.a. Harvard PA14 = test: Biofilm (colony architecture) formation on defined M63 medium; format: cell-based, Pseudomonas aeruginosa; details: 500 μM
Text: Similarly to Bacillus subtilis, Pseudomonas aeruginosa forms a complex architecture on defined medium. These complex structures require the proper formation and assembly of the extra-cellular matrix. […] For these experiments, the organism/strain was P.a. Harvard PA14, the culture medium was M63 and the cell inoculation was at 1.5×10^9 cfu.

Compound: N[C@H](Cc1ccc(O)cc1)C(=O)O [D-tyrosine]
- total accumulation of TasA-mCherry (FIG. 3B) (TasA-mCherry; grown to stationary phase with shaking): little or no effect
- Cell decoration with TasA-mCherry, fluorescence microscopy of washed cells (TasA-mCherry; grown to stationary phase, washed and resuspended): only low levels of fluorescence
- Cell association of TasA fibers (FIG. 3D) (TasA fibers): largely undecorated with TasA fibers
- yqxM and eps expression (FIG. 9A, 9B) [1]: substantially the same as the untreated sample
- Breakdown of existing pellicles (FIG. 2C) (Bacillus subtilis [2]): conspicuous breakdown of pellicles
- Cell growth (FIG. 8) (Bacillus subtilis [3]): substantially the same as the untreated sample
- Biofilm formation on defined medium (FIG. 20) (P.a. Harvard PA14): inhibited biofilm formation
